ChEMBL document CHEMBL1201862, “PubChem BioAssay data set” (2004)
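Results reflect a 48-hour exposure of cells in 96-well plates to compound at five concentrations. At the GI50, growth is halved.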 Calls of active or inactive are those of the source. Cut-off read from the data, not from the text of the source: active = GI50 up to about 1.1 µM and inactive = higher.

What was measured:
Assay in all cases: NCI anticancer screen, dose series, 48 h
[1] = test system: HCT-116
[2] = test system: NCI-H23
[3] = test system: HCT-15
[4] = test system: U-251
[5] = test system: DU-145
[6] = test system: HL-60
[7] = test system: K562
[8] = test system: RXF 393
[9] = test system: SF-268
[10] = test system: CCRF-CEM
[11] = test system: MOLT-4
[12] = test system: SN12C
[13] = test system: Hs-578T
[14] = test system: NCI-H460
[15] = test system: SF-539
[16] = test system: IGROV-1
[17] = test system: A549
[18] = test system: NCI/ADR-RES
[19] = test system: SK-MEL-5
[20] = test system: OVCAR-4

## COC(=O)C1=C(O)C(C(=O)OC)[C@]2(O)[C@@H](C(=O)OC)[C@H]1C[C@@H](c1ccccc1)[C@@H]2C(=O)OC (stereo not given in full)
[1]
  GI50: 6.98 µM (inactive)
[2]
  GI50: 15.2 µM (inactive)
[3]
  GI50: 13.1 µM
[4]
  GI50: 16.1 µM (inactive)
[5]
  GI50: 11.9 µM (inactive)
[6]
  GI50: 19.6 µM (inactive)
[7]
  GI50: 5.61 µM (inactive)
[8]
  GI50: 5.08 µM (inactive)
[9]
  GI50: 1.96 µM (inactive)
[10]
  GI50: 5.42 µM (inactive)
[11]
  GI50: 11.6 µM (inactive)
[12]
  GI50: 15.7 µM (inactive)
[13]
  GI50: 17.2 µM (inactive)
[14]
  GI50: 14 µM (inactive)
[15]
  GI50: 12.6 µM (inactive)

## Cc1c(OCc2ccccc2)c(=O)ccn1CCc1c[nH]c2ccccc12
[16]
  GI50: 26.6 µM (inactive)
[1]
  GI50: 38.3 µM (inactive)
[2]
  GI50: 37.6 µM (inactive)
[3]
  GI50: 74.8 µM
[4]
  GI50: 29.6 µM (inactive)
[17]
  GI50: 36.6 µM (inactive)
[5]
  GI50: 25.9 µM (inactive)
[18]
  GI50: 86.7 µM (inactive)
[19]
  GI50: 18.3 µM (inactive)
[9]
  GI50: 19.2 µM (inactive)
[10]
  GI50: 40.7 µM (inactive)
[11]
  GI50: 1.9 µM (inactive)
[12]
  GI50: 45.6 µM (inactive)
[13]
  GI50: 27.2 µM (inactive)
[14]
  GI50: 33.7 µM (inactive)
[15]
  GI50: 43.4 µM (inactive)

## C=C/C(C)=C/[C@H](C)C(=O)C[C@H](O)CC1CC(=O)NC(=O)C1
[16]
  GI50: 19.9 µM (inactive)
[1]
  GI50: 40.3 µM (inactive)
[2]
  GI50: 36.9 µM (inactive)
[3]
  GI50: 44.7 µM
[4]
  GI50: 34.5 µM (inactive)
[17]
  GI50: 51.3 µM (inactive)
[20]
  GI50: 19.6 µM (inactive)
[18]
  GI50: 57.4 µM (inactive)
[19]
  GI50: 34.5 µM (inactive)
[6]
  GI50: 20.3 µM (inactive)
[7]
  GI50: 43.4 µM (inactive)
[8]
  GI50: 38.5 µM (inactive)
[9]
  GI50: 36 µM (inactive)
[10]
  GI50: 25 µM (inactive)
[11]
  GI50: 19.8 µM (inactive)
[12]
  GI50: 25.5 µM (inactive)
[14]
  GI50: 37.7 µM (inactive)
[15]
  GI50: 35.1 µM (inactive)

## COP(=O)(OC)C(Cc1cn(C(C)=O)c2ccccc12)C(=O)O (stereo not given)
[16]
  GI50: > 100 µM (inactive)
[1]
  GI50: > 100 µM (inactive)
[2]
  GI50: > 100 µM (inactive)
[3]
  GI50: > 100 µM
[4]
  GI50: > 100 µM (inactive)
[17]
  GI50: > 100 µM (inactive)
[5]
  GI50: > 100 µM (inactive)
[20]
  GI50: > 100 µM (inactive)
[18]
  GI50: > 100 µM (inactive)
[19]
  GI50: > 100 µM (inactive)
[6]
  GI50: > 100 µM (inactive)
[7]
  GI50: > 100 µM (inactive)
[10]
  GI50: > 100 µM (inactive)
[11]
  GI50: > 100 µM (inactive)
[12]
  GI50: > 100 µM (inactive)
[13]
  GI50: > 100 µM (inactive)
[14]
  GI50: > 100 µM (inactive)

## COC(=O)c1ccc(NCC2=C(Br)C(=O)C=CC2=O)cc1Cl
[16]
  GI50: 15.5 µM (inactive)
[1]
  GI50: 18 µM (inactive)
[2]
  GI50: 21 µM (inactive)
[3]
  GI50: 15.8 µM
[4]
  GI50: 22.8 µM (inactive)
[17]
  GI50: > 100 µM (inactive)
[5]
  GI50: 22.8 µM (inactive)
[20]
  GI50: 24.4 µM (inactive)
[18]
  GI50: 23.2 µM (inactive)
[19]
  GI50: 20.1 µM (inactive)
[6]
  GI50: 3.68 µM (inactive)
[7]
  GI50: 3.54 µM (inactive)
[9]
  GI50: 16.8 µM (inactive)
[10]
  GI50: > 100 µM (inactive)
[11]
  GI50: 17.7 µM (inactive)
[12]
  GI50: 16.5 µM (inactive)
[13]
  GI50: 21.9 µM (inactive)
[14]
  GI50: 17.2 µM (inactive)
[15]
  GI50: 16.8 µM (inactive)

## CCOC(=O)c1c(-c2ccccc2)c(C)cn1C
[16]
  GI50: > 10 µM (inactive)
[1]
  GI50: > 10 µM (inactive)
[2]
  GI50: > 10 µM (inactive)
[3]
  GI50: > 10 µM
[4]
  GI50: > 10 µM (inactive)
[17]
  GI50: > 10 µM (inactive)
[5]
  GI50: > 10 µM (inactive)
[20]
  GI50: > 10 µM (inactive)
[18]
  GI50: > 10 µM (inactive)
[7]
  GI50: > 10 µM (inactive)
[8]
  GI50: > 10 µM (inactive)
[9]
  GI50: > 10 µM (inactive)
[10]
  GI50: > 10 µM (inactive)
[11]
  GI50: > 10 µM (inactive)
[12]
  GI50: 3.73 µM (inactive)
[13]
  GI50: > 10 µM (inactive)
[14]
  GI50: > 10 µM (inactive)
[15]
  GI50: > 10 µM (inactive)

## CSc1nc2c(ncn2C2OCC(O)C(O)C2O)c(=O)n1C (stereo not given)
[16]
  GI50: > 100 µM (inactive)
[1]
  GI50: > 100 µM (inactive)
[2]
  GI50: > 100 µM (inactive)
[3]
  GI50: > 100 µM
[4]
  GI50: > 100 µM (inactive)
[17]
  GI50: > 100 µM (inactive)
[20]
  GI50: > 100 µM (inactive)
[18]
  GI50: > 100 µM (inactive)
[19]
  GI50: > 100 µM (inactive)
[6]
  GI50: > 100 µM (inactive)
[7]
  GI50: > 100 µM (inactive)
[8]
  GI50: > 100 µM (inactive)
[9]
  GI50: > 100 µM (inactive)
[10]
  GI50: > 100 µM (inactive)
[11]
  GI50: > 100 µM (inactive)
[12]
  GI50: > 100 µM (inactive)
[14]
  GI50: > 100 µM (inactive)
[15]
  GI50: > 100 µM (inactive)

## CCOC(=O)c1ccc(N[C@@H]2c3cc4c(cc3C(c3cc(OC)c(O)c(OC)c3)[C@H]3C(=O)OCC32)OCO4)cc1 (stereo not given in full)
[16]
  GI50: 3.27 µM (inactive)
[1]
  GI50: 1.17 µM (inactive)
[2]
  GI50: 0.339 µM (active)
[3]
  GI50: 0.379 µM
[4]
  GI50: 0.249 µM (active)
[17]
  GI50: 0.0413 µM (active)
[5]
  GI50: 0.258 µM (active)
[20]
  GI50: 4.21 µM (inactive)
[18]
  GI50: 1.42 µM (inactive)
[19]
  GI50: 0.505 µM (active)
[6]
  GI50: 0.0912 µM (active)
[9]
  GI50: 0.771 µM (active)
[10]
  GI50: 0.0818 µM (active)
[11]
  GI50: 0.0142 µM (active)
[12]
  GI50: 0.396 µM (active)
[14]
  GI50: 0.0255 µM (active)
[15]
  GI50: 0.421 µM (active)

## CN(CCCCCl)P(=O)(OCC1=CC(=O)c2ccccc2C1=O)OC[C@H]1O[C@@H](n2cc(F)c(=O)[nH]c2=O)C[C@@H]1O (stereo not given in full)
[16]
  GI50: 0.124 µM (active)
[1]
  GI50: 0.0693 µM (active)
[2]
  GI50: 0.0532 µM (active)
[3]
  GI50: 3.66 µM
[17]
  GI50: < 0.01 µM (active)
[5]
  GI50: 0.052 µM (active)
[20]
  GI50: 0.681 µM (active)
[19]
  GI50: 0.0334 µM (active)
[6]
  GI50: 0.69 µM (active)
[7]
  GI50: 1.5 µM (inactive)
[8]
  GI50: 0.0625 µM (active)
[9]
  GI50: < 0.01 µM (active)
[10]
  GI50: < 0.01 µM (active)
[12]
  GI50: < 0.0323 µM (active)
[13]
  GI50: < 0.01 µM (active)
[14]
  GI50: < 0.01 µM (active)
[15]
  GI50: < 0.0244 µM (active)

## COc1cc2cc(C(=O)N3CC(CCl)c4c3cc(N(C)C)c3ccccc43)[nH]c2c(OC)c1OC (stereo not given)
[16]
  GI50: 0.0111 µM (active)
[1]
  GI50: < 0.01 µM (active)
[2]
  GI50: < 0.01 µM (active)
[3]
  GI50: < 0.0115 µM
[4]
  GI50: < 0.01 µM (active)
[17]
  GI50: < 0.01 µM (active)
[5]
  GI50: < 0.01 µM (active)
[20]
  GI50: 0.0163 µM (active)
[18]
  GI50: < 0.01 µM (active)
[19]
  GI50: < 0.01 µM (active)
[7]
  GI50: < 0.01 µM (active)
[8]
  GI50: 0.0137 µM (active)
[9]
  GI50: < 0.01 µM (active)
[10]
  GI50: < 0.01 µM (active)
[11]
  GI50: < 0.01 µM (active)
[12]
  GI50: < 0.01 µM (active)
[13]
  GI50: 0.0199 µM (active)
[14]
  GI50: < 0.01 µM (active)
[15]
  GI50: 0.0131 µM (active)

## CN(C(=O)c1ccc(OCCCC(=O)O)c(Cl)c1Cl)C1CCCC1
[16]
  GI50: > 100 µM (inactive)
[1]
  GI50: > 62.8 µM (inactive)
[2]
  GI50: > 76.7 µM (inactive)
[3]
  GI50: > 100 µM
[4]
  GI50: > 100 µM (inactive)
[17]
  GI50: > 100 µM (inactive)
[20]
  GI50: > 100 µM (inactive)
[18]
  GI50: > 100 µM (inactive)
[19]
  GI50: > 100 µM (inactive)
[6]
  GI50: > 72.8 µM (inactive)
[7]
  GI50: > 100 µM (inactive)
[8]
  GI50: > 71.1 µM (inactive)
[9]
  GI50: > 96.4 µM (inactive)
[10]
  GI50: > 100 µM (inactive)
[11]
  GI50: > 100 µM (inactive)
[12]
  GI50: > 100 µM (inactive)
[14]
  GI50: > 95.3 µM (inactive)
[15]
  GI50: > 100 µM (inactive)

## CCCCCCCCCCCC1=C(O)C(=O)C=C(O)C1=O [EMBELIN]
[16]
  GI50: 6.76 µM (inactive)
[1]
  GI50: 9.2 µM (inactive)
[2]
  GI50: 7.05 µM (inactive)
[3]
  GI50: 5.11 µM
[4]
  GI50: 5.02 µM (inactive)
[17]
  GI50: 4.36 µM (inactive)
[20]
  GI50: 10 µM (inactive)
[18]
  GI50: 6.27 µM (inactive)
[19]
  GI50: 4.84 µM (inactive)
[6]
  GI50: 3.95 µM (inactive)
[7]
  GI50: 7.67 µM (inactive)
[8]
  GI50: 12.9 µM (inactive)
[9]
  GI50: 3.92 µM (inactive)
[10]
  GI50: 4.27 µM (inactive)
[11]
  GI50: 6.35 µM (inactive)
[12]
  GI50: 4.73 µM (inactive)
[14]
  GI50: 2.88 µM (inactive)
[15]
  GI50: 6.76 µM (inactive)
